# What was measured:
# HIV infected persons [1] = assay: Clinical trial of niacin (nicotinamide) in HIV infected persons: plasma amino acids by HPLC, tolerability; type: in vivo, human
# Method: Four HIV infected persons participated in a trial of niacin in the form of nicotinamide. The participants were at various stages of their HIV infection as judged by their CD4 counts which ranged from 0 to 620 [see table 1]. […] Two of the participants had known co-infections infections typical of HIV infected persons. Each participant took 3 grams of nicotinamide per day for 2 months. […] Each participant's plasma tryptophan was measured prior to treatment and at the end of treatment [see table 3]. […] All amino acid concentrations were measured by High Performance Liquid Chromotography [HPLC].
# HIV infected persons [2] = conditions: cited from earlier work
smiles,measurement,setting,value
O=C(O)c1cccnc1 [Niacin],"tryptophan status (plasma tryptophan), in words","HIV infected persons [1]; four patients across the range of baseline CD4 count, antiviral medication and co-infections",improve tryptophan status in all four patients
"Cc1cn([C@H]2C[C@H](N=[N+]=[N-])[C@@H](CO)O2)c(=O)[nH]c1=O [Zidovudine, zidovudine]",effect on plasma tryptophan in HIV infected persons,HIV infected persons [2]; HIV infected persons,replete plasma tryptophan
same,side effects,HIV infected persons [2]; in vivo,"headache, nausea, and bone marrow suppression"
NC(=O)c1cccnc1 [nicotinamide],adverse side effects of treatment,"HIV infected persons [1]; 3 grams of nicotinamide per day for 2 months, four HIV infected persons",not associated with any adverse side effects
same,average increase of plasma tryptophan of all participants,"HIV infected persons [1]; 3 grams of nicotinamide per day orally for 2 months, four HIV infected persons, before vs end of treatment, p=0.0112 (paired t-test)",43.9%

# Reference: patent publication US7012086B1, “Treatment of retrovirus induced derangements with niacin compounds” (The Foundation For Innovative Therapies, Inc., priority 2000, dated 2006)
